Data from article PMC3050028 (Neuron, 2011).

Target: T1, IR84a (Drosophila melanogaster, UniProt Q9VIA5)
T1 sequence (Q9VIA5 25-644): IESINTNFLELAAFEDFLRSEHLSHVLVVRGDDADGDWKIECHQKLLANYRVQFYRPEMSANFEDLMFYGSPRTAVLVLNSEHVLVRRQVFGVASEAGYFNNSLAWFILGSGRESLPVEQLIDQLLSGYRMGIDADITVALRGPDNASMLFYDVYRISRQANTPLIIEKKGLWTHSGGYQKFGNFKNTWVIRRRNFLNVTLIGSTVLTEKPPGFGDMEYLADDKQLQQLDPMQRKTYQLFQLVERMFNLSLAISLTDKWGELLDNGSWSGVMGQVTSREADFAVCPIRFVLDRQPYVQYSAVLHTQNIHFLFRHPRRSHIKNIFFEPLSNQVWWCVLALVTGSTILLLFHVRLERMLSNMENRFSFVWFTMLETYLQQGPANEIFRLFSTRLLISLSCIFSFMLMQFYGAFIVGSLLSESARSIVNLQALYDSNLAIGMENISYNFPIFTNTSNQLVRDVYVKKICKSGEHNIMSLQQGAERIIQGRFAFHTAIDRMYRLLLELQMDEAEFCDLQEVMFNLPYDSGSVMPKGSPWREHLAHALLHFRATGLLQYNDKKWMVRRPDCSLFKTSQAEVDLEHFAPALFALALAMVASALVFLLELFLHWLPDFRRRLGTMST
T1 sequence (Q9W365 18-936 partner): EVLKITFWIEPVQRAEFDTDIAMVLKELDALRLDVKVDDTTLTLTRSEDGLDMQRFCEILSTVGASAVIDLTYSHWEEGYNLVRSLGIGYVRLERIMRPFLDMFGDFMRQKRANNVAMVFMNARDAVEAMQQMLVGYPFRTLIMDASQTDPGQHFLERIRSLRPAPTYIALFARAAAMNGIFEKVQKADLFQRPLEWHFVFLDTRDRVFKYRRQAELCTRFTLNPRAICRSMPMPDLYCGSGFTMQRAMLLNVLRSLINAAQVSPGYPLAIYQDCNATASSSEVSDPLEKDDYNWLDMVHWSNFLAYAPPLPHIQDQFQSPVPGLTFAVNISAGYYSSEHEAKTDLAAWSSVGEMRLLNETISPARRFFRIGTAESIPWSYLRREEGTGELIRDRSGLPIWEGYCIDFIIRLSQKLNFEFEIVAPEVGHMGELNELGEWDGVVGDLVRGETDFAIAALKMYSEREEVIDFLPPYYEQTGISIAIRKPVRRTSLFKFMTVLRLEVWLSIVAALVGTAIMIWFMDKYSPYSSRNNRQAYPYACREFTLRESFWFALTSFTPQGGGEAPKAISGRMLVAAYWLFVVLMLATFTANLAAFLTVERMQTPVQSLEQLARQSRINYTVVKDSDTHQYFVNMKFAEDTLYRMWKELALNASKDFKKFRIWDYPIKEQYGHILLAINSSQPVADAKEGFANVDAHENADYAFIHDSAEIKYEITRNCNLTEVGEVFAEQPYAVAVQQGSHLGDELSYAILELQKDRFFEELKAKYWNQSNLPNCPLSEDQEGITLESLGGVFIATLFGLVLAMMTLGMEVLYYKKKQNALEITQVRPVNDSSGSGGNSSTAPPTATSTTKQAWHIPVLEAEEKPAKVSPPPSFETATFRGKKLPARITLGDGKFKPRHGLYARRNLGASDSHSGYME
Assay type: cell-based

`CC12CC3CC(C)(C1)CC(N)(C3)C2` [memantine] was tested, and the IC50 was 39 ± 9 µM.
